Measurements reported in US20160136229A1, “MATERIALS FOR POSITIVE CATHEPSIN B MODULATION AND METHODS OF USE FOR TREATING MILD COGNITIVE IMPAIRMENT (MCI), EARLY DEMENTIA, A-SYNUCLEINOPATHY, TRAUMATIC BRAIN INJURY, CARDIOMYOPATHY, EYE DISEASE AND SKIN DAMAGE” (University of North Carolina at Pembroke, priority 2013, published 2016).

Columns and labels:
[1] = biological target: T1, 30-kDa active form of cathepsin B (Rattus norvegicus, UniProt P00787); assay: Immunoblot of active cathepsin B in brain region homogenates of Fischer rats; assay type: in vivo; conditions: hippocampal and neocortical homogenates; 27 mg/kg daily, 9 days of injections
T1 construct: assessed by immunoblot to label the 30-kDa active form of cathepsin B; from tissue; host or cells: Fischer rat brain regions (A5); rat brain regions, eye and skin after oral dosing (A18); rat organotypic heart slice cultures (A17)
Description: FIG. 3. Lysosomal modulator PADK dramatically up-regulates active cathepsin B levels in middle-aged Fischer rats, a model of MCI. The female rats were injected daily with vehicle (veh) or 27 mg/kg PADK for 9 days. Brain regions were dissected, homogenates prepared, and equal protein aliquots were assessed by immunoblot to label the 30-kDa active form of cathepsin B as well as actin load controls (A). The hippocampal homogenate samples were also stained for the postsynaptic marker GluR1 to assess for synaptic recovery in correspondence to cathepsin B regulation (A, lower blots).
Brains were removed from the Fischer rats after the behavior studies in order to assess cathepsin B and synaptic marker levels. […] Cathepsin B immunoreactivity was increased 4- to 8-fold in hippocampal as well as neocortical homogenates, while non-lysosomal proteins remained unchanged (gel load controls). In addition to the correspondence with improved memory, there is evidence that the lysosomal modulation corresponds with synaptic recovery, assessing the postsynaptic marker GluR1 in hippocampus (FIG. 3A lower blots, and FIG. 3C). Without wishing to be bound by any scientific theory, the results support the hypothesis that lysosomal enhancement offsets the age-related cascade of microtubule destabilization, transport failure, synaptic decline, and cognitive impairment. […]

[2] = tested on: phosphorylated tau (pTau); assay: pTau in Aβ42-treated rat hippocampal slice cultures (early tauopathy model); assay type: cell-based; conditions: 5 μM for 4 days
Description: (§1) FIG. 4. Enhancing lysosome efficiency with the cathepsin B modulator PADK leads to reductions of multiple types of proteinopathy-related accumulation events. […] Age-matched wild-type mice (wt) and 9-10-month mutant human APP mice, a model of early dementia, treated with or without PADK were assessed for the 4-kDa Δβ peptide, the active form of cathepsin B (act CB), and other proteins in hippocampal samples (C). Similar treatment groups used another APP mouse model at 20-22 months of age to measure clearance of APP carboxyterminal fragments APP-αCTF and APP-βCTF (D). Rat hippocampal slice cultures from the untreated control group (con) and slices treated with submicromolar Δβ42 (early tauopathy model) in the absence or presence of PADK (5 μM for 4 days) were assessed for phosphorylated tau (pTau) and other proteins (E). For a model of early α-synucleinopathy, human A53T α-synuclein transgenic mice, at 7 months old, were studied with or without PADK treatment and assessed for human α-synuclein (α-syn) in TX-100 extracts of hippocampus and for other proteins in hippocampal homogenates (F). Plotted data (±SEM) were compared to neighboring vehicle groups by unpaired t-tests: *p=0.02, **p<0.01, ***p<0.001. APPswind and APP-PS1 mice are described in Butler et al., (2011), the entire content of which is hereby incorporated herein by reference. […]

[3] = tested on: mutant colonies; assay: Ames test of genetic toxicity; assay type: cell-based; conditions: in contrast to a mutagen tested in parallel
[4] = biological target: T2, active cathepsin B (Mus musculus, UniProt P10605); assay: Active cathepsin B staining in PADK-treated mice; assay type: in vivo; conditions: 18 mg/kg/d×9 days, ip, vs vehicle
T2 construct: from tissue; host or cells: brain and CNS regions of mice (PADK-treated mice, A53T transgenic and wild-type mice, C57BL/6 mice)
Description: FIG. 4. Enhancing lysosome efficiency with the cathepsin B modulator PADK leads to reductions of multiple types of proteinopathy-related accumulation events. […] Age-matched wild-type mice (wt) and 9-10-month mutant human APP mice, a model of early dementia, treated with or without PADK were assessed for the 4-kDa Δβ peptide, the active form of cathepsin B (act CB), and other proteins in hippocampal samples (C). Similar treatment groups used another APP mouse model at 20-22 months of age to measure clearance of APP carboxyterminal fragments APP-αCTF and APP-βCTF (D). Rat hippocampal slice cultures from the untreated control group (con) and slices treated with submicromolar Δβ42 (early tauopathy model) in the absence or presence of PADK (5 μM for 4 days) were assessed for phosphorylated tau (pTau) and other proteins (E). For a model of early α-synucleinopathy, human A53T α-synuclein transgenic mice, at 7 months old, were studied with or without PADK treatment and assessed for human α-synuclein (α-syn) in TX-100 extracts of hippocampus and for other proteins in hippocampal homogenates (F). Plotted data (±SEM) were compared to neighboring vehicle groups by unpaired t-tests: *p=0.02, **p<0.01, ***p<0.001. APPswind and APP-PS1 mice are described in Butler et al., (2011), the entire content of which is hereby incorporated herein by reference.

[5] = tested on: APP-αCTF and APP-βCTF; assay: Clearance of APP carboxyterminal fragments in APP mouse model; assay type: in vivo; conditions: PADK-treated transgenic mice, 20-22 months; correlated with augmented active CatB
Description: as §1

[6] = biological target: T3, active cathepsin (Mus musculus, UniProt P10605); assay: Active cathepsin in brain samples of PADK-injected C57BL/6 mice; assay type: in vivo; conditions: ip daily for 9 days
T3 construct: from tissue; host or cells: brain and CNS regions of mice (PADK-treated mice, A53T transgenic and wild-type mice, C57BL/6 mice)

[7] = tested on: Aβ1-42 peptide; conditions: cited from earlier work
[8] = tested on: bacterial; assay: Bacterial cytotoxicity test; assay type: cell-based; conditions: tested at up to a 1000 times the IC50 of the toxin mitomycin C
[9] = tested on: Aβ peptide; assay: Aβ peptide in hippocampal samples of mutant human APP mice; assay type: in vivo, mouse; conditions: PADK-treated transgenic mice; correlated with augmented active CatB in brain
Description: as §1

[10] = tested on: cathepsin B; assay: Cathepsin B species immunoblot in heart tissue of A53T mice; assay type: in vivo, mouse
Description: FIG. 8. PADK also enhances cathepsin B species in the heart. The A53T early α-synucleinopathy mouse model was injected daily with vehicle or PADK (i.p., 18 mg/kg/day) to test for changes in heart tissue. […] Positions of molecular weight standards (kDa) are shown on the left side of the immunoblot. (B) In the lower graph, ratios between CB-30 and CB-105 (mean±SEM) provide a good example of the unique PADK effect on cathepsin B species in the heart. **P<0.01 as compared to vehicle-treated A53T mice.
Ratio measures between the 30-kDa form and the 105-kDa species indicate a unique PADK effect on cathepsin B species in the heart (FIG. 8 bar graph).

[11] = tested on: rats; assay: Adverse effect observation after oral dosing in rats; assay type: in vivo, rat; conditions: 15 mg/kg twice a day, 10 days

T3 sequence (P10605 80-333 limits assumed): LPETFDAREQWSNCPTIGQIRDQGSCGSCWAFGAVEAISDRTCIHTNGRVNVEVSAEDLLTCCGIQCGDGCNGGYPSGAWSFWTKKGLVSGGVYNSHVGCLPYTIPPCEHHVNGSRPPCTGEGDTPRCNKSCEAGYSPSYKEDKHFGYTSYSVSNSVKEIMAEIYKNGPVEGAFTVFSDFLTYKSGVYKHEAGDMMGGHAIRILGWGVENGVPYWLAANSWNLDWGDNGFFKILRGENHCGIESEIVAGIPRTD
T2 sequence (P10605 80-333 limits assumed): as above
T1 sequence (P00787 80-333 limits assumed): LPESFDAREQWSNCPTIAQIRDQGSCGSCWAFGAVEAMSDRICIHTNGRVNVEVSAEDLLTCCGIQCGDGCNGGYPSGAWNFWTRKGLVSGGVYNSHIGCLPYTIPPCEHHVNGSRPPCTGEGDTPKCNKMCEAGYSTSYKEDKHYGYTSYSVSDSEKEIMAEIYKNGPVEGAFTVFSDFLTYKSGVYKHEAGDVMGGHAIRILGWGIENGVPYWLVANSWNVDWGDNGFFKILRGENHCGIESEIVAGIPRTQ

C[C@H](NC(=O)[C@H](Cc1ccccc1)NC(=O)OCc1ccccc1)C(=O)C=[N+]=[N-] [PADK, N-carbobenzyloxy-L-phenylalanyl-L-alanyl-diazomethylketone]
Cathepsin B immunoreactivity increase [1]: 4- to 8 fold
pTau accumulation [2]: significant decrease
synaptic protection [2]: evidence of synaptic protection
mutant colonies in the Ames test [3]: did not produce mutant colonies
levels of active cathepsin B [4]: increased levels of active cathepsin B
APP carboxy-terminal fragments (αCTF and βCTF) [5]: reductions
active cathepsin in brain samples [6]: dose-dependent increase
extracellular Aβ deposits ([7]; AD mouse models): significantly reduced
truncated Aβ38 ([7]; AD transgenic mice): increase
synaptic integrity and cognitive ability ([7]; AD transgenic mouse models): improved
intracellular Aβ1-42 peptide in the hippocampus and other brain regions ([7]; two different transgenic mouse models of AD): reduced
active form of cathepsin B ([7]; two mouse models of AD): markedly up-regulated
bacterial cytotoxicity [8]: did not cause bacterial cytotoxicity
Aβ peptide level [9]: reductions
high molecular weight cathepsin B species (CB-80, CB-85, CB-105) in heart ([10]; A53T mice, i.p., 18 mg/kg/day): returned the high molecular weight species to near normal levels
ratio between active cathepsin B form of 30 kDa and the precursor of >100 kDa ([10]; heart tissue, p<0.01 vs vehicle-treated A53T mice): enhances the ratio
adverse effects during behavioral tests [11]: no evidence of adverse effects
